Results reported in patent US8846684B2 (priority 2011, dated 2014).
Where two headings read alike, the source gives them in different places.

Tested on: WEEV replicon
Assay: microbe, parasite or virus in culture
Type: cell-based, Western equine encephalitis virus
Conditions: Western equine encephalitis virus; for activity at 2 µM: read-out: Activity (% control LUC) 2 μM; for activity at 10 µM: read-out: Activity (% control LUC) 10 μM
[1] = read-out: Activity (% control LUC) 50 μM
[2] = read-out: 50 μM (% control) Luc

| Structure (SMILES) | IC50 (read-out: Activity IC50 (μM)) | activity at 2 µM | activity at 10 µM | activity at 50 µM [1] | IC50 | activity at 50 µM [2] |
| --- | --- | --- | --- | --- | --- | --- |
| O=C(c1cc2ccccc2n1Cc1ccc(Cl)cc1)N1CCC(C(=O)N2CCCC2)CC1 [CCG 102514, (1-(4-chlorobenzyl)-1H-indol-2-yl)(4-(pyrrolidine-1-carbonyl)piperidin-1-yl)methanone] | 23.8 µM | 83.1% | 66.4% | 10.5% | – | – |
| Cc1ccc(CCNC(=O)C2CCN(C(=O)c3cc4ccccc4n3Cc3ccc(Cl)cc3)CC2)cc1 [CCG 102518, 1-(1-(4-chlorobenzyl)-1H-indole-2-carbonyl)-N-(4-methylphenethyl)piperidine-4-carboxamide] | 4.2 µM | 83% | 33.8% | 32.2% | – | – |
| O=C(NCc1ccccc1)C1CCN(C(=O)c2cc3ccccc3n2Cc2ccc(F)cc2)CC1 [CCG 203880, N-benzyl-1-(1-(4-fluorobenzyl)-1H-indole-2-carbonyl)piperidine-4-carboxamide] | 25 µM | 134% | 121% | 67% | – | – |
| O=C(c1cc2ccccc2n1Cc1ccc(Cl)cc1)N1CCC(C(=O)N2CCCCC2)CC1 [CCG 203928, (1-(4-chlorobenzyl)-1H-indol-2-yl)(4-(piperidine-1-carbonyl)piperidin-1-yl)methanone] | 8.1 µM | 95.1% | 65.4% | 3.4% | – | – |
| O=C(NCc1ccncc1)C1CCN(C(=O)c2cc3ccccc3n2Cc2ccc(Cl)cc2)CC1 [CCG 203929, 1-(1-(4-chlorobenzyl)-1H-indole-2-carbonyl)-N-(pyridin-4-ylmethyl)piperidine-4-carboxamide] | 6.6 µM | 99.5% | 51.8% | 36.4% | – | – |
| CN(Cc1ccccc1)C(=O)C1CCN(C(=O)c2cc3ccccc3n2Cc2ccc(Cl)cc2)CC1 [CCG 203930, N-benzyl-1-(1-(4-chlorobenzyl)-1H-indole-2-carbonyl)-N-methylpiperidine-4-carboxamide] | 18.6 µM | 110% | 59.5% | 38% | – | – |
| O=C(c1cc2ccccc2n1Cc1ccc(F)cc1)N1CCN(Cc2ccccc2)CC1 [CCG 203942, (4-benzylpiperazin-1-yl)(1-(4-fluorobenzyl)-1H-indol-2-yl)methanone] | 12.8 µM | 116% | 73.8% | 48.9% | – | – |
| O=C(c1cc2ccccc2n1Cc1ccc(F)cc1)N1CCC(C(=O)N2CCCCC2)CC1 [CCG 203945, (1-(4-fluorobenzyl)-1H-indol-2-yl)(4-(piperidine-1-carbonyl)piperidin-1-yl)methanone] | 20 µM | 85% | 64.4% | 21.3% | – | – |
| O=C(c1cc2ccccc2n1Cc1ccc(Cl)cc1)N1CCC(C(=O)N2CCC[C@H]2CO)CC1 [CCG 204021, (S)-(1-(4-chlorobenzyl)-1H-indol-2-yl)(4-(2-(hydroxymethyl)pyrrolidine-1-carbonyl)piperidin-1-yl)methanone] | 32.1 µM | 87.8% | 77.9% | 21.1% | – | – |
| CN(C)C(=O)C1CCN(C(=O)c2cc3ccccc3n2Cc2ccc(Cl)cc2)CC1 [CCG 204022, 1-(1-(4-chlorobenzyl)-1H-indole-2-carbonyl)-N,N-dimethylpiperidine-4-carboxamide] | 10.4 µM | 87.3% | 51.9% | 5.8% | – | – |
| CN1CCN(C(=O)C2CCN(C(=O)c3cc4ccccc4n3Cc3ccc(Cl)cc3)CC2)CC1 [CCG 204023, (1-(4-chlorobenzyl)-1H-indol-2-yl)(4-(4-methylpiperazine-1-carbonyl)piperidin-1-yl)methanone] | 21.4 µM | 99% | 67.4% | 6% | – | – |
| O=C(c1cc2ccccc2n1Cc1ccc(Cl)cc1)N1CCC(C(=O)N2CCOCC2)CC1 [CCG 204024, (1-(4-chlorobenzyl)-1H-indol-2-yl)(4-(morpholine-4-carbonyl)piperidin-1-yl)methanone] | 12.3 µM | 74.9% | 47.4% | 8.3% | – | – |
| Cc1cccc(CNC(=O)C2CCN(C(=O)c3cc4ccccc4n3Cc3ccc(Cl)cc3)CC2)c1 [CCG 204042, 1-(1-(4-chlorobenzyl)-1H-indole-2-carbonyl)-N-(3-methylbenzyl)piperidine-4-carboxamide] | 9.8 µM | 93.7% | 59.5% | 64.4% | – | – |
| O=C(NCc1cccc(Cl)c1)C1CCN(C(=O)c2cc3ccccc3n2Cc2ccc(Cl)cc2)CC1 [CCG 204043, N-(3-chlorobenzyl)-1-(1-(4-chlorobenzyl)-1H-indole-2-carbonyl)piperidine-4-carboxamide] | 28.5 µM | 78.6% | 60.9% | 53.6% | – | – |
| O=C(NCc1ccccc1)C1CCN(C(=O)c2cccn2Cc2ccc(Cl)cc2)CC1 [CCG 204054, N-benzyl-1-(1-(4-chlorobenzyl)-1H-pyrrole-2-carbonyl)piperidine-4-carboxamide] | 54.6 µM | 110% | 108% | 74.5% | – | – |
| O=C(c1cc2ccccc2n1Cc1ccc(F)cc1)N1CCC(CN2CCCCC2)CC1 [CCG 204055, (1-(4-fluorobenzyl)-1H-indol-2-yl)(4-(piperidin-1-ylmethyl)piperidin-1-yl)methanone] | 13.3 µM | 89.7% | 69.9% | 40% | – | – |

| Structure (SMILES) | IC50 (read-out: Activity IC50 (μM)) | activity at 2 µM | activity at 10 µM | activity at 50 µM [1] | IC50 | activity at 50 µM [2] |
| --- | --- | --- | --- | --- | --- | --- |
| O=C(c1cc2ccccc2n1Cc1ccc(F)cc1)N1CCC(C(O)c2ccccc2)CC1 (stereo not shown) [CCG 204056, (1-(4-fluorobenzyl)-1H-indol-2-yl)(4-(hydroxy(phenyl)methyl)piperidin-1-yl)methanone] | 16 µM | 99.3% | 71.7% | 8.3% | – | – |
| COC(=O)c1cccc(NC(=O)C2CCN(C(=O)c3cc4ccccc4n3Cc3ccc(Cl)cc3)CC2)c1 [CCG 204057, Methyl 3-(1-(1-(4-chlorobenzyl)-1H-indole-2-carbonyl)piperidine-4-carboxamido)benzoate] | 35.6 µM | 87.9% | 54% | 50.9% | – | – |
| CN(Cc1ccccc1)C(=O)C1CCN(C(=O)c2cc3ccccc3[nH]2)CC1 [CCG 205400, N-benzyl-1-(1H-indole-2-carbonyl)-N-methylpiperidine-4-carboxamide] | – | – | – | – | 27.7 µM | 29.1% |
| CN(Cc1ccccc1)C(=O)C1CCN(C(=O)c2cc3ccccc3n2Cc2ccccc2)CC1 [CCG 205404, N-benzyl-1-(1-benzyl-1H-indole-2-carbonyl)-N-methylpiperidine-4-carboxamide] | – | – | – | – | 16.9 µM | 20.5% |
| O=C(NCc1cccnc1)C1CCN(C(=O)c2cc3ccccc3n2Cc2ccc(Cl)cc2)CC1 [CCG 205422, 1-(1-(4-chlorobenzyl)-1H-indole-2-carbonyl)-N-(pyridin-3-ylmethyl)piperidine-4-carboxamide] | – | – | – | – | 11.4 µM | 7.05% |
| CN(Cc1ccccc1)C(=O)C1CCN(C(=O)c2cc3ccccc3n2C)CC1 [CCG 205428, N-benzyl-N-methyl-1-(1-methyl-1H-indole-2-carbonyl)piperidine-4-carboxamide] | – | – | – | – | – | 77.2% |
| CN1CCC(CNC(=O)C2CCN(C(=O)c3cc4ccccc4n3Cc3ccc(Cl)cc3)CC2)CC1 [CCG 205429, 1-(1-(4-chlorobenzyl)-1H-indole-2-carbonyl)-N-((1-methylpiperidin-4-yl)methyl)piperidine-4-carboxamide] | – | – | – | – | – | 26.8% |
| O=C(c1cc2ccccc2n1Cc1ccc(Cl)cc1)N1CCC(C(=O)N2CCN(Cc3cccnc3)CC2)CC1 [CCG 205430, (1-(4-chlorobenzyl)-1H-indol-2-yl)(4-(4-(pyridin-3-ylmethyl)piperazine-1-carbonyl)piperidin-1-yl)methanone] | – | – | – | – | 13.1 µM | 3.55% |
| Cc1c(C(=O)N2CCC(C(=O)NCc3ccccc3)CC2)n(Cc2ccc(Cl)cc2)c2ccccc12 [CCG 205431, N-benzyl-1-(1-(4-chlorobenzyl)-3-methyl-1H-indole-2-carbonyl)piperidine-4-carboxamide] | – | – | – | – | > 100 µM | 48.4% |
| O=C(NCCc1ccncc1)C1CCN(C(=O)c2cc3ccccc3n2Cc2ccc(Cl)cc2)CC1 [CCG 205432, 1-(1-(4-chlorobenzyl)-1H-indole-2-carbonyl)-N-(2-(pyridin-4-yl)ethyl)piperidine-4-carboxamide] | – | – | – | – | 0.53 µM | 3.75% |
| O=C(NCCc1cccnc1)C1CCN(C(=O)c2cc3ccccc3n2Cc2ccc(Cl)cc2)CC1 [CCG 205433, 1-(1-(4-chlorobenzyl)-1H-indole-2-carbonyl)-N-(2-(pyridin-3-yl)ethyl)piperidine-4-carboxamide] | – | – | – | – | 5.34 µM | 1.9% |
| Cn1ccc(CNC(=O)C2CCN(C(=O)c3cc4ccccc4n3Cc3ccc(Cl)cc3)CC2)n1 [CCG 205454, 1-(1-(4-chlorobenzyl)-1H-indole-2-carbonyl)-N-((1-methyl-1H-pyrazol-3-yl)methyl)piperidine-4-carboxamide] | – | – | – | – | 76.9 µM | 46.6% |
| Cn1cnc(CNC(=O)C2CCN(C(=O)c3cc4ccccc4n3Cc3ccc(Cl)cc3)CC2)c1 [CCG 205455, 1-(1-(4-chlorobenzyl)-1H-indole-2-carbonyl)-N-((1-methyl-1H-imidazol-4-yl)methyl)piperidine-4-carboxamide] | – | – | – | – | – | 50.8% |
| O=C(NCCc1ccccn1)C1CCN(C(=O)c2cc3ccccc3n2Cc2ccc(Cl)cc2)CC1 [CCG 205456, 1-(1-(4-chlorobenzyl)-1H-indole-2-carbonyl)-N-(2-(pyridin-2-yl)ethyl)piperidine-4-carboxamide] | – | – | – | – | 22.4 µM | 24.1% |
| O=C(c1cc2ccccc2n1Cc1ccc(Cl)cc1)N1CCC(C(=O)N2Cc3ccccc3C2)CC1 [CCG 205470, (1-(4-chlorobenzyl)-1H-indol-2-yl)(4-(isoindoline-2-carbonyl)piperidin-1-yl)methanone] | – | – | – | – | – | 51.8% |
